Nine molecules from patent US11597721B2, “Heterocyclic compounds comprising pyridine useful as modulators of IL-12, IL-23 and/or IFNα responses” (BRISTOL-MYERS SQUIBB COMPANY, priority 2018, dated 2023) can be followed below.

In general, IC50 refers to the midpoint of a concentration-inhibition curve.

Each structure is given as a SMILES string. A value given as a limit tells only on which side of the number the result lay.

The test system of the assay is IFNα-Induced STAT Phosphorylation. Briefly: IFNα-Induced STAT Phosphorylation in Human Whole Blood. The class given is cell-based. Particulars: Homo sapiens, 1 h compound incubation, 1000 U/mL recombinant human IFNα A/D for 15 min, pSTAT5 in CD3 positive population, read-out: LE Human WB IFNα-Induced Stat Phosph. (IC50). An excerpt:
IFNα-Induced STAT Phosphorylation in Human Whole Blood
The amount of pSTAT5 expression was quantitated by median fluorescence intensity after gating on the CD3 positive population.
In the case of `[2H]C([2H])([2H])NC(=O)c1nnc(NC(=O)CC(C)C)cc1Nc1nccc(-c2noc(CN3CCOC3=O)n2)c1OC` [Example 71, 4-[(3-methoxy-4-{5-[(2-oxo-1,3-oxazolidin-3-yl)methyl]-1,2,4-oxadiazol-3-yl}pyridin-2-yl)amino]-N—(^2H3)methyl-6-(3-methylbutanamido)pyridazine-3-carboxamide], the IC50 came to 420 nM.
To `[2H]C([2H])([2H])NC(=O)c1nnc(Nc2cc(C(C)(C)O)ccn2)cc1Nc1nccc(-c2ncn(C)n2)c1OC` [Example 25, 6-{[4-(2-hydroxypropan-2-yl)pyridin-2-yl]amino}-4-{[3-methoxy-4-(1-methyl-1H-1,2,4-triazol-3-yl)pyridin-2-yl]amino}-N—(^2H3)methylpyridazine-3-carboxamide] belongs 50 nM; to `[2H]C([2H])([2H])NC(=O)c1nnc(NC(=O)C2CC2)cc1Nc1nccc(-c2noc(CC#N)n2)c1OC` [Example 60, 4-({4-[5-(cyanomethyl)-1,2,4-oxadiazol-3-yl]-3-methoxypyridin-2-yl}amino)-6-cyclopropaneamido-N—(^2H3)methylpyridazine-3-carboxamide], 130 nM.
Regarding `[2H]C([2H])([2H])NC(=O)c1nnc(NC(=O)OC)cc1Nc1nccc(-c2noc(CN3CCCCS3(=O)=O)n2)c1OC` [Example 64, methyl N-{5-[(4-{5-[(1,1-dioxo-1λ^6,2-thiazinan-2-yl)methyl]-1,2,4-oxadiazol-3-yl}-3-methoxypyridin-2-yl)amino]-6-[(^2H3)methylcarbamoyl]pyridazin-3-yl}carbamate], the IC50 amounted to 90 nM.
For `[2H]C([2H])([2H])NC(=O)c1nnc(Nc2ccc(-n3cccc(C(F)(F)F)c3=O)cn2)cc1Nc1nccc(-c2ncn(C)n2)c1OC` [Example 26, 4-{[3-methoxy-4-(1-methyl-1H-1,2,4-triazol-3-yl)pyridin-2-yl]amino}-N—(^2H3)methyl-6-{[2-oxo-3-(trifluoromethyl)-2H-[1,3′-bipyridine]-6-yl]amino}pyridazine-3-carboxamide] the value was 30 nM; for `[2H]C([2H])([2H])NC(=O)c1nnc(NC(=O)C2CC2)cc1Nc1nccc(-c2noc(CN3CCOCC3)n2)c1OC` [Example 55, 6-cyclopropaneamido-4-[(3-methoxy-4-{5-[(morpholin-4-yl)methyl]-1,2,4-oxadiazol-3-yl}pyridin-2-yl)amino]-N—(^2H3)methylpyridazine-3-carboxamide], 30 nM.
To `[2H]C([2H])([2H])NC(=O)c1cnc(NC(=O)CC)cc1Nc1nccc(-c2nnn(C)n2)c1OC` [Example 105, 4-{[3-methoxy-4-(2-methyl-2H-1,2,3,4-tetrazol-5-yl)pyridin-2-yl]amino}-N—(^2H3)methyl-6-propanamidopyridine-3-carboxamide] belongs 90 nM.
On to `[2H]C([2H])([2H])NC(=O)c1nnc(Nc2cc(C#N)ccn2)cc1Nc1nccc(-c2ncn(C)n2)c1OC` [Example 13, 6-[(4-cyanopyridin-2-yl)amino]-4-{[3-methoxy-4-(1-methyl-1H-1,2,4-triazol-3-yl)pyridin-2-yl]amino}-N—(^2H3)methylpyridazine-3-carboxamide], for which the IC50 is more than 10000 nM.
For `[2H]C([2H])([2H])NC(=O)c1nnc(NC(=O)C2CC2)cc1Nc1nccc(-c2noc(COC)n2)c1OC` [Example 50, 6-cyclopropaneamido-4-({3-methoxy-4-[5-(methoxymethyl)-1,2,4-oxadiazol-3-yl]pyridin-2-yl}amino)-N—(^2H3)methylpyridazine-3-carboxamide] the value was 40 nM.
